What was measured:
[1] = biological target: T1, Heat shock protein HSP 90-beta (Homo sapiens, UniProt P08238); test: Displacement of [3H]17AAG from human recombinant Hsp90 after 30 mins by beta scintillation counting
[2] = system: A2780; test: Antiproliferative activity against human A2780 cells after 72 hrs by alamar blue assay; type: functional, cell-based; details: A2780, 72 h
[3] = system: COLO 205; test: Antiproliferative activity against human COLO205 cells after 72 hrs by alamar blue assay; type: functional, cell-based; details: COLO 205, 72 h
[4] = system: MCF7; test: Antiproliferative activity against human MCF7 cells after 72 hrs by alamar blue assay; type: functional, cell-based; details: MCF7, 72 h
[5] = system: PC-3; test: Antiproliferative activity against human PC3 cells after 72 hrs by alamar blue assay; type: functional, cell-based; details: PC-3, 72 h
[6] = biological target: T1, Heat shock protein HSP 90-beta; test: Inhibition of Hsp90 in human A2780 cells assessed as Hsp70 upregulation after 24 hrs by immunostaining method; type: cell-based

T1 sequence (P08238 whole entry): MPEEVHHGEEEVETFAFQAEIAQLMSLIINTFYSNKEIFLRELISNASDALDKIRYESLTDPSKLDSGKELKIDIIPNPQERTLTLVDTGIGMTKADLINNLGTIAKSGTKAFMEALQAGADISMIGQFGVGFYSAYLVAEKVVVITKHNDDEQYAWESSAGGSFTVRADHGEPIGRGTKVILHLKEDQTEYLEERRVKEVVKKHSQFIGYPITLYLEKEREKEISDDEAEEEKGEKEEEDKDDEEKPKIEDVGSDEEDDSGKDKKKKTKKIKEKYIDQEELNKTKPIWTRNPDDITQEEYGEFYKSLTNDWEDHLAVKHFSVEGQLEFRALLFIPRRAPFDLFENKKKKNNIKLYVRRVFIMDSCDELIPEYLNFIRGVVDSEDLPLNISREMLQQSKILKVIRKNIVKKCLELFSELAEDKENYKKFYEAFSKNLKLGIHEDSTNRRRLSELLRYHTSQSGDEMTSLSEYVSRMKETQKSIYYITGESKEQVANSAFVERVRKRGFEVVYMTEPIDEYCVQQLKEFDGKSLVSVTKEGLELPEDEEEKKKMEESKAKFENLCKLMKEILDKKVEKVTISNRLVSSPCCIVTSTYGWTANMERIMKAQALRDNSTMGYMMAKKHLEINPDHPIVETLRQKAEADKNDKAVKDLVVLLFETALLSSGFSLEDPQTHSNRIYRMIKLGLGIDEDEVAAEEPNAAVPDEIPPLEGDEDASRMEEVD

Compound | IC50 [1] [nM] | IC50 [2] [nM] | further results
COc1cc2[nH]nc(Cc3cccc(C)c3)c2cc1C(=O)N(C)Cc1ccccc1 | > 20000 |  | 
CN(Cc1ccc(Br)cc1)C(=O)c1cc2c(Cc3ccccc3)n[nH]c2cc1O | 1100 | 2800 | 
CCc1ccc(CN(C)C(=O)c2cc3c(Cc4ccccc4)n[nH]c3cc2O)cc1 | 390 | 9400 | 
CCOc1ccc(CN(C)C(=O)c2cc3c(Cc4ccccc4)n[nH]c3cc2O)cc1 | 760 | 3200 | 
COc1cccc(CN(C)C(=O)c2cc3c(Cc4ccccc4)n[nH]c3cc2O)c1OC | 470 | 4800 | 
CN(Cc1ccccc1)C(=O)c1cc2c(Cc3ccccc3Cl)n[nH]c2cc1O | 2600 |  | 
Cc1ccccc1Cc1n[nH]c2cc(O)c(C(=O)N(C)Cc3ccccc3)cc12 | 2400 |  | 
Cc1cccc(Cc2n[nH]c3cc(O)c(C(=O)NCc4ccccc4)cc23)c1 | 1500 | > 10000 | 
CCN(Cc1ccccc1)C(=O)c1cc2c(Cc3cccc(C)c3)n[nH]c2cc1O | 3000 |  | 
COc1cccc(Cc2n[nH]c3cc(O)c(C(=O)N(C)Cc4ccccc4)cc23)c1 | 1400 |  | 
CCc1ccc(Cc2n[nH]c3cc(O)c(C(=O)N(C)Cc4ccccc4)cc23)cc1 | 2500 | > 10000 | 
CN(Cc1ccc(CNS(C)(=O)=O)cc1)C(=O)c1cc2c(Cc3cccc(Cl)c3)n[nH]c2cc1O | 60 | 570 | IC50 [3]: 9500 nM; IC50 [4]: 3500 nM; IC50 [5]: 4300 nM; IC50 [6]: 1000 nM
Oc1ccc2c(C3CCCC3)n[nH]c2c1 | 87000 |  | 
Cc1ccc(-c2nc(N)nc3ccc(Cl)cc23)cc1 | 900 |  | 
Nc1nc(Cl)cc(Cc2ccc(Cl)cc2)n1 | 21000 |  | 
NC(=O)c1cc2c(Cc3ccccc3)n[nH]c2cc1O | 61000 |  | 
CCCN(C)C(=O)c1cc2c(Cc3ccccc3)n[nH]c2cc1O | 1900 | > 10000 | 
CCCCN(C)C(=O)c1cc2c(Cc3ccccc3)n[nH]c2cc1O | 1800 | 7600 | 
COCCN(C)C(=O)c1cc2c(Cc3ccccc3)n[nH]c2cc1O | 4000 |  | 
CN(Cc1ccccc1)C(=O)c1cc2c(Cc3ccccc3)n[nH]c2cc1O | 660 | 980 | 
CN(C(=O)c1cc2c(Cc3ccccc3)n[nH]c2cc1O)c1ccco1 | 610 | 2500 | 
CN(Cc1ccccc1)C(=O)c1cc2c(CCc3ccccc3)n[nH]c2cc1O | 230 | 4600 | 
CN(Cc1ccccc1F)C(=O)c1cc2c(Cc3ccccc3)n[nH]c2cc1O | 900 | 1500 | 
CN(Cc1ccccc1Cl)C(=O)c1cc2c(Cc3ccccc3)n[nH]c2cc1O | 1100 | 1100 | 
CN(Cc1ccccc1Br)C(=O)c1cc2c(Cc3ccccc3)n[nH]c2cc1O | 610 | 1200 | 
Cc1ccccc1CN(C)C(=O)c1cc2c(Cc3ccccc3)n[nH]c2cc1O | 740 | 4400 | 
COc1ccccc1CN(C)C(=O)c1cc2c(Cc3ccccc3)n[nH]c2cc1O | 1700 | 5400 | 
CN(Cc1cccc(C(F)(F)F)c1)C(=O)c1cc2c(Cc3ccccc3)n[nH]c2cc1O | 3400 |  | 

More lines, main results first:

IC50 [1] [nM] | IC50 [2] [nM] | Compound | further results
580 | 3700 | COc1ccc(CN(C)C(=O)c2cc3c(Cc4cccc(C)c4)n[nH]c3cc2O)cc1OC | 
780 | 310 | Cc1cccc(Cc2n[nH]c3cc(O)c(C(=O)N(C)Cc4ccccc4Br)cc23)c1 | 
370 | 440 | Cc1cccc(Cc2n[nH]c3cc(O)c(C(=O)N(C)Cc4cccc(F)c4)cc23)c1 | 
580 | 590 | Cc1cccc(Cc2n[nH]c3cc(O)c(C(=O)N(C)Cc4ccc(F)cc4)cc23)c1 | 
460 | 540 | COc1ccc(CN(C)C(=O)c2cc3c(Cc4cccc(C)c4)n[nH]c3cc2O)cc1 | 
170 | 930 | Cc1cccc(Cc2n[nH]c3cc(O)c(C(=O)N(C)Cc4ccc(Cl)c(F)c4)cc23)c1 | 
680 | 1600 | COc1cc(CN(C)C(=O)c2cc3c(Cc4cccc(C)c4)n[nH]c3cc2O)ccc1Cl | 
500 | 530 | Cc1cccc(Cc2n[nH]c3cc(O)c(C(=O)N(C)Cc4ccc(F)c(F)c4)cc23)c1 | 
200 | 4000 | Cc1cccc(Cc2n[nH]c3cc(O)c(C(=O)N(C)Cc4cccc(NS(C)(=O)=O)c4)cc23)c1 | 
350 | 1600 | Cc1cccc(Cc2n[nH]c3cc(O)c(C(=O)N(C)Cc4ccc(NS(C)(=O)=O)cc4)cc23)c1 | 
150 | 710 | Cc1cccc(Cc2n[nH]c3cc(O)c(C(=O)N(C)Cc4ccc(CNS(C)(=O)=O)cc4)cc23)c1 | IC50 [3]: 3700 nM; IC50 [4]: 4700 nM; IC50 [5]: > 10000 nM; IC50 [6]: 1100 nM
1100 | 4100 | CN(Cc1ccc(F)cc1)C(=O)c1cc2c(Cc3ccccc3)n[nH]c2cc1O | 
330 | 2600 | CN(Cc1ccc(Cl)cc1)C(=O)c1cc2c(Cc3ccccc3)n[nH]c2cc1O | 
630 | 6900 | Cc1ccc(CN(C)C(=O)c2cc3c(Cc4ccccc4)n[nH]c3cc2O)cc1 | 
2300 | 4100 | COc1cc(CN(C)C(=O)c2cc3c(Cc4ccccc4)n[nH]c3cc2O)ccc1Cl | 
980 | > 10000 | CN(Cc1ccc(Cl)c(F)c1)C(=O)c1cc2c(Cc3ccccc3)n[nH]c2cc1O | 
1300 | 1700 | CN(Cc1ccccc1)C(=O)c1cc2c(Cc3cccc(F)c3)n[nH]c2cc1O | 

IC50 [1] [nM] | IC50 [2] [nM] | Compound | further results
400 | 410 | CN(Cc1ccccc1)C(=O)c1cc2c(Cc3cccc(Cl)c3)n[nH]c2cc1O | 
 | 490 | Cc1cccc(Cc2n[nH]c3cc(O)c(C(=O)N(C)Cc4ccccc4)cc23)c1 | 
1300 |  | CCc1cccc(Cc2n[nH]c3cc(O)c(C(=O)N(C)Cc4ccccc4)cc23)c1 | 
5700 |  | CN(Cc1ccccc1)C(=O)c1cc2c(Cc3ccc(Cl)cc3)n[nH]c2cc1O | 
1300 | > 10000 | Cc1ccc(Cc2n[nH]c3cc(O)c(C(=O)N(C)Cc4ccccc4)cc23)cc1 | 
590 | 130 | CN(Cc1ccccc1Br)C(=O)c1cc2c(Cc3cccc(Cl)c3)n[nH]c2cc1O | 
710 | 440 | CN(Cc1cccc(F)c1)C(=O)c1cc2c(Cc3cccc(Cl)c3)n[nH]c2cc1O | 
800 | 410 | CN(Cc1ccc(F)cc1)C(=O)c1cc2c(Cc3cccc(Cl)c3)n[nH]c2cc1O | 
800 | 390 | COc1ccc(CN(C)C(=O)c2cc3c(Cc4cccc(Cl)c4)n[nH]c3cc2O)cc1 | 
730 | 2400 | COc1ccc(CN(C)C(=O)c2cc3c(Cc4cccc(Cl)c4)n[nH]c3cc2O)cc1OC | 
410 | 3200 | CN(Cc1cccc(NS(C)(=O)=O)c1)C(=O)c1cc2c(Cc3cccc(Cl)c3)n[nH]c2cc1O | 
570 | 5000 | CN(Cc1cccc(F)c1)C(=O)c1cc2c(Cc3ccccc3)n[nH]c2cc1O | 
1500 | 5300 | CN(Cc1cccc(Cl)c1)C(=O)c1cc2c(Cc3ccccc3)n[nH]c2cc1O | 
1300 | 7100 | CN(Cc1cccc(Br)c1)C(=O)c1cc2c(Cc3ccccc3)n[nH]c2cc1O | 
3600 |  | Cc1cccc(CN(C)C(=O)c2cc3c(Cc4ccccc4)n[nH]c3cc2O)c1 | 
980 | 3800 | COc1cccc(CN(C)C(=O)c2cc3c(Cc4ccccc4)n[nH]c3cc2O)c1 | 

— ChEMBL document CHEMBL2040817, “Fragment-based discovery of hydroxy-indazole-carboxamides as novel small molecule inhibitors of Hsp90” (Bioorg Med Chem Lett, 2012)
